≈ marks a conversion by molar mass, not a printed value. Read-outs that look alike come from different tables or passages of the source.
What was measured:
[1] = isomerisation of (Z)-isomer at ambient temperature; type: physicochemical
[2] = system: collagen-induced β-thromboglobulin release; assay: inhibition of collagen-induced β-thromboglobulin release in vitro in human blood; type: cell-based; conditions: read-out: ED50 (concentration which produced 50% inhibition of the β-thromboglobulin release)
diastolic blood pressure = assay: fall in diastolic blood pressure in anaesthetised rats; type: in vivo; conditions: rats anaesthetised with pentobarbitone; intravenously at a rate of 45 μg/kg animal body weight
Experimental: In other laboratory tests, compound B produced a 25% fall in diastolic blood pressure in rats (anaesthetised with pentobarbitone) when administered intravenously at a rate of 45 μg/kg animal body weight.

[3] = cited from earlier work
[4] = system: artery and some other kinds of smooth muscle; conditions: cited from earlier work
[5] = system: arachidonic acid-induced blood platelet aggregation of the human; conditions: human platelets; cited from earlier work
blood platelets = conditions: cited from earlier work

## O=C(O)CCC/C=C1/C[C@H]2[C@H](CC[C@@H]2/C=C/[C@@H](O)C2CCCCC2)C1=O (relative stereo) [(Z)-isomer]
[1]
  isomerisation back to the (E)-isomer: slowly isomerised back to the (E)-isomer

## O=C(O)CCC/C=C1\C[C@H]2[C@H](CC[C@@H]2/C=C/[C@@H](O)C2CCCCC2)C1=O (relative stereo) [Compound B, (±)-(5E,13E)-(9S,15S)-6a-oxo-6,9-methano-15-cyclohexyl-15-hydroxy-16,17,18,19,20-pentanorprosta-5,13-dienoic acid]
[2]
  IC50: 5 µg/mL (≈ 13.9 µM)
Diastolic blood pressure
  fall in diastolic blood pressure: 25%

## CCCCCC(O)/C=C/[C@H]1CC[C@@H]2C(=O)/C(=C/CCCC(=O)O)C[C@@H]21 (relative stereo) [Compound E, (±)-(5E,13E)-(9S), [mixture of (15R) and (15S)]-6a-oxo-6,9-methano-15-hydroxyprosta-5,13-dienoic acid]
[2]
  IC50: 34 µg/mL

## CCCCCC(O)/C=C/[C@H]1CC[C@@H]2C(=O)/C(=C\CCCC(=O)O)C[C@@H]21 (relative stereo) [Compound F, (±)-(5Z,13E)-(9S), [mixture of (15R) and (15S)]-6a-oxo-6,9-methano-15-hydroxyprosta-5,13-dienoic acid]
[2]
  IC50: < 17 µg/mL

## O=C(O)CCC/C=C1\C[C@H]2[C@H](CC[C@@H]2/C=C/C(O)C2CCCCC2)C1=O (relative stereo) [Compound I, (±)-(5E,13E)-(9S),[mixture of (15R) and (15S)]-6a-oxo-6,9-methano-15-cyclohexyl-15-hydroxy-16,17,18,19,20-pentanorprosta-5,13-dienoic acid]
[2]
  IC50: < 17 µg/mL

## CCCCC[C@H](O)/C=C/[C@@H]1[C@H]2C/C(=C/CCCC(=O)O)O[C@H]2C[C@H]1O [PGI2, (5Z,13E)-(9S,11R,15S)-6,9-epoxy-11,15-dihydroxyprosta-5,13-dienoic acid]
[3]; pH 7.6, 22° C.
  time to deactivation in a buffer solution: 20 min
[3]; pH 7.6, 37° C.
  time to deactivation in a buffer solution: 10 min
[4]
  activity on the artery and some other kinds of smooth muscle: strong relaxing activity
[5]
  inhibition of arachidonic acid-induced blood platelet aggregation: strongly inhibits

## CCCCC[C@H](O)/C=C/[C@H]1O[C@H]2C[C@H](O2)[C@@H]1C/C=C\CCCC(=O)O [thromboxane A2]
[4]
  activity on the artery and some other kinds of smooth muscle: contracting activity
Blood platelets
  aggregating activity on blood platelets: aggregating activity

Source: patent publication US4517202A, “Prostaglandin analogues” (May & Baker Limited, priority 1982, dated 1985)
